In ChEMBL document CHEMBL5356933, “Dual functional therapeutics: mitigating bacterial infection and associated inflammation” (RSC Med Chem, 2023):
Values after ≈ are worked out from the molar mass of the structure shown. Residues, ends and D or L forms follow the SMILES beside them.

Tests used:
[1] = tested on: Escherichia coli; assay: Antibacterial activity against Escherichia coli assessed as reduction in bacterial growth by broth micro-dilution method; format: functional
[2] = tested on: Streptococcus pneumoniae; assay: Antibacterial activity against Streptococcus pneumoniae ATCC 49619 assessed as reduction in bacterial growth; format: functional
[3] = tested on: Staphylococcus aureus; assay: Antibacterial activity against methicillin-resistant Staphylococcus aureus ATCC 33591 assessed as reduction in bacterial growth incubated for 24 hrs by agar plate method; format: functional
[4] = tested on: Escherichia coli; assay: Antimicrobial activity against Escherichia coli ATCC 25922 assessed as reduction in microbial growth incubated for 24 hrs by CLSI based broth microdilution method; format: functional
[5] = tested on: Acinetobacter baumannii; assay: Antibacterial activity against Acinetobacter baumannii ATCC 19606 assessed as bacterial growth inhibition at 32 ug/ml measured after 16 hrs by broth microdilution method; format: functional; conditions: dose 32 µg/ml
[6] = tested on: J774.A1; assay: Antiinflammatory activity against mouse J774.A1 cells assessed as inhibition of LPS-stimulated TNFalpha release measured at 10 uM after 30 mins by ELISA relative to control; format: functional; design: scale not given: the % may be the effect or the level left; conditions: 0.5 h
[7] = tested on: J774.A1; assay: Antiinflammatory activity in mouse J774.A1 cells assessed as decrease in LPS-induced IL-6 secretion at 20 uM preincubated for 30 mins followed by LPS stimulation and measured after 24 hrs by ELISA; format: functional; design: scale not given: the % may be the effect or the level left; conditions: time 1470 min, 24.5 h
[8] = Hemolytic activity in human RBC assessed as hemolysis up to 100 microg/ml measured after 1 hr; format: toxicity, cell-based, Erythrocyte; conditions: red blood cells (erythrocytes), dose < 100 µg/ml
[9] = tested on: Escherichia coli; assay: Antibacterial activity against Escherichia coli ATCC 25922 assessed as inhibition of bacterial growth incubated for 16 to 18 hrs by broth microdilution method; format: functional; conditions: time 16-18 hrs
[10] = tested on: Staphylococcus aureus; assay: Antibacterial activity against Staphylococcus aureus ATCC 33591 assessed as reduction in bacterial growth; format: functional
[11] = tested on: Staphylococcus epidermidis; assay: Antibacterial activity against Staphylococcus epidermidis assessed as reduction in microbial growth incubated for 24 hrs by broth micro-dilution method; format: functional
[12] = tested on: Escherichia coli; assay: Antibacterial activity against Escherichia coli ATCC 25922 assessed as reduction in bacterial growth by broth microdilution method; format: functional
[13] = tested on: Pseudomonas aeruginosa; assay: Antibacterial activity against multi-drug resistant Pseudomonas aeruginosa assessed as reduction in bacterial growth by broth microdilution method; format: functional
[14] = tested on: RAW264.7; assay: Anti-inflammatory activity against mouse RAW264.7 cells assessed as inhibition of LPS-induced NO production at 20 ug/ml relative to control; format: functional; design: scale not given: the % may be the effect or the level left; conditions: dose 20 µg/ml
[15] = tested on: RAW264.7; assay: Antiinflammatory activity in LPS-induced mouse RAW264.7 cells assessed as reduction in TNF alpha level at 20 ug/ml measured after 72 hrs by ELISA assay relative to control; format: functional; design: scale not given: the % may be the effect or the level left; conditions: dose 20 µg/ml
[16] = tested on: RAW264.7; assay: Anti-inflammatory activity in mouse RAW264.7 cells assessed as reduction in LPS-induced IL-6 mRNA expression at 20 ug/ml incubated for 24 hrs by qPCR analysis relative to control; format: functional; design: scale not given: the % may be the effect or the level left; conditions: dose 20 µg/ml
[17] = tested on: RAW264.7; assay: Immunosuppressive activity in LPS-treated mouse RAW264.7 cells assessed as inhibition of MCP-1 level at 20 ug/ml incubated for 24 hrs by ELISA analysis relative to control; format: functional; design: scale not given: the % may be the effect or the level left; conditions: dose 20 µg/ml
[18] = tested on: RAW264.7; assay: Anti-inflammatory activity against mouse RAW264.7 cells assessed as inhibition of LPS-induced NO production at 10 uM incubated for 24 hrs by Griess reagent based analysis relative to control; format: functional; design: scale not given: the % may be the effect or the level left
[19] = tested on: RAW264.7; assay: Antiinflammatory activity against LPS-stimulated mouse RAW264.7 cells assessed as inhibition of TNFalpha production at 10 uM preincubated for 27 hrs followed by LPS stimulation and measured after 12 hrs by ELISA analysis relative to control; format: functional; design: scale not given: the % may be the effect or the level left; conditions: time 39 hrs
[20] = tested on: Enterococcus faecium; assay: Antibacterial activity against Enterococcus faecium clinical isolate assessed as reduction in cell growth incubated for 48 hrs by broth micro-dilution method; format: functional
[21] = tested on: Staphylococcus aureus; assay: Antibacterial activity against Staphylococcus aureus clinical isolate assessed as reduction in cell growth incubated for 48 hrs by broth micro-dilution method; format: functional
[22] = tested on: Klebsiella pneumoniae; assay: Antibacterial activity against Klebsiella pneumoniae clinical isolate assessed as reduction in cell growth incubated for 48 hrs by broth micro-dilution method; format: functional
[23] = tested on: RAW264.7; assay: Anti-inflammatory activity against mouse RAW264.7 cells assessed as reduction in LPS-induced TNFalpha production relative to control; format: functional; design: scale not given: the % may be the effect or the level left
[24] = tested on: RAW264.7; assay: Anti-inflammatory activity against mouse RAW264.7 cells assessed as reduction in LPS-induced IL-6 mRNA production relative to control; format: functional; design: scale not given: the % may be the effect or the level left
[25] = Acute toxicity in Kunming mouse assessed as survival rate at 40 ug/kg, ip administered once daily for 14 days relative to control; format: organism-based; conditions: in vivo, 0.04 mg/kg, time 14 day, read-out: Activity
[26] = Acute toxicity in Kunming mouse assessed as survival rate at 80 ug/kg, ip administered once daily for 14 days relative to control; format: organism-based; conditions: in vivo, 0.08 mg/kg, time 14 day, read-out: Activity
[27] = Acute toxicity in Kunming mouse assessed as survival rate at 160 ug/kg, ip administered once daily for 14 days relative to control; format: organism-based; conditions: in vivo, 0.16 mg/kg, time 14 day, read-out: Activity
[28] = tested on: RAW264.7; assay: Antiinflammatory activity against LPS-induced mouse RAW264.7 cells assessed as reduction in IL-6 mRNA expression incubated for 24 hrs by RT-PCR analysis relative to control; format: functional; design: scale not given: the % may be the effect or the level left
[29] = tested on: RAW264.7; assay: Antiinflammatory activity against mouse RAW264.7 cells assessed as reduction in TNF alpha production incubated for 24 hrs by ELISA method relative to control; format: functional; design: scale not given: the % may be the effect or the level left

NCCCOc1cc(OCCCN)cc(-c2cc(-c3ccccc3)cc(-c3cc(OCCCN)cc(OCCCN)c3)c2)c1
MIC [1]: 3.13 µg/mL (≈ 5.23 µM)

CCCCCCCCCCN(Cc1cccc2ccccc12)C(=O)[C@@H](N)CCCCN
MIC [2]: 4.1 µM (≈ 1.75 µg/mL)

CCCCCCN(Cc1ccc(-c2ccc(CN(CCCCCC)C(=O)[C@@H](N)CCCCN)cc2)cc1)C(=O)[C@@H](N)CCCCN
MIC [3]: 3.1 µg/mL (≈ 4.87 µM)

CCCCCCCCCCCCCCCC(=O)N(CC(N)=O)C[C@H](CCCCN)NC(=O)N1C[C@H](Cc2ccccc2)NC(=O)CN(C(=O)CCCN)C[C@H](Cc2ccccc2)NC(=O)CN(C(=O)CCCN)C[C@H](Cc2ccccc2)NC(=O)CN(C(=O)CCCN)C[C@H](Cc2ccccc2)NC(=O)CCC1=O
MIC [4]: 1 µM

CC[C@H](C)[C@@H](NC(=O)[C@@H](CCCNC(=N)N)NC(=O)[C@@H](CCCNC(=N)N)NC(=O)[C@@H](CC(C)C)NC(=O)[C@@H](Cc1c[nH]c2ccccc12)NC(=O)[C@@H](C)NC(=O)[C@@H](CCCCN)NC(=O)[C@H](NC(=O)[C@@H](CCCNC(=N)N)NC(=O)[C@@H](CCCNC(=N)N)NC(=O)[C@@H](CC(C)C)NC(=O)[C@H](N)Cc1c[nH]c2ccccc12)[C@@H](C)CC)C(=O)N[C@H](CCCCN)C(=O)N[C@H](C)C(N)=O
MIC [5]: 2 µM (≈ 3.73 µg/mL) | Activity [6]: 64.7% | Activity [7]: 96.4%

CCOC(=O)[C@H](Cc1ccccc1)NC(=O)C[N+](C)(C)CCCCCCCCCCCC[N+](C)(C)CC(=O)N[C@H](Cc1ccccc1)C(=O)OCC
HC50 at 1 h [8]: 758 µg/mL | MIC [9]: 0.9 µg/mL

CCCCCCCCCCCCCCCC(=O)N(CCNC(=O)CN1C[C@H](Cc2ccccc2)NC(=O)[C@H](CCCCN)N(C(=O)CCc2ccccc2)CCNC(=O)[C@H](CCCCN)N(C(=O)CCc2ccccc2)CCNC(=O)[C@H](CCCCN)N(C(=O)CCc2ccccc2)CCNC(=O)CCC1=O)[C@@H](CCCCN)C(N)=O
MIC [10]: 2.4 µM (≈ 3.86 µg/mL) | MIC [11]: 0.6 µM

CC[C@H](C)[C@H](NC(=O)[C@H](Cc1cnc[nH]1)NC(=O)[C@H](CO)NC(=O)[C@@H](NC(=O)[C@@H](NC(=O)[C@@H](NC(=O)[C@@H](NC(=O)[C@H](CCCNC(=N)N)NC(=O)[C@H](CC(C)C)NC(=O)[C@H](CCCCN)NC(=O)[C@H](CCC(=O)O)NC(=O)[C@H](CCCCN)NC(=O)[C@H](CC(C)C)NC(=O)[C@H](CCCCN)NC(=O)[C@H](CS)NC(=O)[C@H](CC(C)C)NC(=O)[C@H](Cc1ccccc1)NC(=O)[C@H](CC(N)=O)NC(=O)[C@H](CS)NC(=O)[C@@H](N)CCCCN)[C@@H](C)O)C(C)C)[C@@H](C)CC)[C@@H](C)O)C(=O)N[C@@H](CC(=O)O)C(=O)N[C@@H](CCCCN)C(=O)N[C@H](C(=O)N[C@@H](CC(C)C)C(=O)N[C@@H](CCCNC(=N)N)C(=O)N1CCC[C@H]1C(=O)N[C@@H](CCC(N)=O)C(=O)NCC(N)=O)C(C)C (H-KCNFLCKLKEKLRTVITSHIDKVLRPQG-NH2)
MIC [12]: 4.69 µg/mL (≈ 1.44 µM) | MIC [13]: 37.5 µg/mL (≈ 11.5 µM) | Activity [14]: 70% | Activity [15]: 60% | Activity [16]: 86% | Activity [17]: 68%

CC(C)C[C@H](NC(=O)[C@H](Cc1c[nH]c2ccccc12)NC(=O)[C@H](CCCCN)NC(=O)[C@H](CCCCN)NC(=O)[C@H](Cc1c[nH]c2ccccc12)NC(=O)[C@H](CCCCN)NC(=O)[C@H](CCCCN)NC(=O)[C@H](Cc1c[nH]c2ccccc12)NC(=O)[C@H](CC(C)C)NC(=O)[C@@H](N)CCCCN)C(=O)N[C@@H](CCCCN)C(N)=O (H-KLWKKWKKWLK-NH2)
Activity [18]: 50%

CC[C@H](C)[C@H](NC(=O)[C@H](CCCNC(=N)N)NC(=O)[C@H](CCCCN)NC(=O)[C@@H](NC(=O)[C@@H](NC(=O)[C@H](CCCNC(=N)N)NC(=O)[C@@H](N)CCCCN)[C@@H](C)CC)C(C)C)C(=O)N[C@@H](CCCCN)C(=O)N[C@@H](CCCCN)C(=O)N[C@@H](Cc1c[nH]c2ccccc12)C(=O)N[C@@H](CC(C)C)C(=O)N[C@@H](CCCNC(=N)N)C(N)=O (H-KRIVKRIKKWLR-NH2)
Activity [19]: 74.2%

CC[C@H](C)[C@H](NC(=O)[C@H](Cc1c[nH]c2ccccc12)NC(=O)[C@H](CCCNC(=N)N)NC(=O)[C@H](CCC(N)=O)NC(=O)[C@@H](NC(=O)[C@H](Cc1c[nH]c2ccccc12)NC(=O)[C@H](CCCNC(=N)N)NC(=O)[C@@H](N)CCCNC(=N)N)C(C)C)C(=O)N[C@@H](CCCNC(=N)N)C(=O)N[C@@H](CCCNC(=N)N)C(=O)N[C@@H](Cc1c[nH]c2ccccc12)C(=O)N[C@@H](CCCNC(=N)N)C(=O)N[C@@H](CCCCN)C(=O)N[C@@H](Cc1c[nH]c2ccccc12)C(=O)N[C@H](C(=O)O)C(C)C (H-RRWVQRWIRRWRKWV-OH)
MIC [20]: 5 µM (≈ 11.3 µg/mL) | MIC [21]: 5 µM (≈ 11.3 µg/mL) | MIC [22]: 5 µM (≈ 11.3 µg/mL)

CC(C)C[C@H](NC(=O)CNC(=O)[C@H](Cc1ccccc1)NC(=O)[C@H](CCCNC(=N)N)NC(=O)[C@H](CCCNC(=N)N)NC(=O)CNC(=O)[C@H](Cc1cnc[nH]1)NC(=O)[C@H](CCCNC(=N)N)NC(=O)CNC(=O)[C@@H](NC(=O)[C@H](C)NC(=O)[C@@H](N)CO)C(C)C)C(=O)N[C@@H](CCCNC(=N)N)C(=O)N[C@@H](CCCCN)C(=O)N[C@@H](Cc1cnc[nH]1)C(=O)N[C@@H](CCCNC(=N)N)C(=O)N[C@@H](CCCCN)C(=O)N[C@@H](Cc1cnc[nH]1)C(=O)O (H-SAVGRHGRRFGLRKHRKH-OH)
Activity [23]: >50% | Activity [24]: >50% | survival at 336 h [25]: 10% | survival at 336 h [26]: 70% | survival at 336 h [27]: 75% | Activity [28]: 46% | Activity [29]: 75%
